According to US4617184A, “99m Tc-1,2-dihydroxy-1,2-bis(dihydroxyphosphinyl)ethane complex for skeleton scanning” (priority 1984, dated 1986):

Assays:
[1] = Distribution in rats of the complex prepared by electrochemical reduction; assay type: in vivo, Hooded strain rats; conditions: i.v. tail vein, electrochemically prepared complex
Method: Four milliliters of a sterile aqueous solution containing 1.5 mg of DHPE, 20 mg of CH3 COONa and 10 mCi of Na^+99m TcO4^- were added to a sterile cell equipped with tin electrodes. An electrical charge of 5×10^-2 coulombs (20 sec×2.5 mA) was passed through to produce the ^99m Tc-DHPE complex. Paper chromatography of the solution was run according to the method outlined in Example 1. The determined radiochemical purity of the ^99m Tc-DHPE compound was 98%. The complex was assayed by intravenous injections into the tail veins of Hooded strain rats as in Example 1, the animals being sacrificed at 1, 2, 4, 6, 12, and 24 hours.

[2] = Gamma camera bone imaging in anesthetized rabbit; assay type: in vivo
Method: Two milliliters of a sterile saline solution of Na^+99m TcO4^- (IO millicuries Tc-99m) were added to a pharmaceutical vial containing 2 mL of a sterile aqueous solution containing 2.2 mg of DHPE, 50μg of SnCl2 and 50 mg of CH3 COONa. The vial was vigorously shaken, then allowed to stand for five minutes at room temperature. Paper chromatography of the solution was run according to the method outlined in Example 1 and only 2% unreacted pertechnetate was found.
Bone imaging was carried out by intravenous injection of 0.5 milliliters of this solution into the ear vein of an anesthetized rabbit positioned under a gamma camera. […] As time passed the quality of the images improved. […] Less than 30% of the initial radioactivity in the blood was detected in the blood 30 minutes after injection.

[3] = Organ distribution of ^99m Tc-DHPE (freeze dried kit) in rats, i.v. tail vein; assay type: in vivo, Hooded strain rats; design: Dose per Organ: unit not given here
Method: Twenty five milliliters of a sterile aqueous solution of 55.5 mg of DHPE were mixed with 12.5 mL of a freshly prepared sterile aqueous solution containing 0.1 mg of SnCl2 per milliliter and with 12.5 mL of a sterile aqueous solution of sodium acetate 10% W/V. Portions of 2 mL each of the resulting solution were transferred through a Millipore filter of 0.22 micron pore size into pharmaceutical vials. The vials were freeze dried for 24 hours and were sealed in vacuum. Four milliliters of saline solution of Na^+99m TcO4^- (20 millicuries Tc-99m) were added to each vial. The vial was vigorously shaken, and then allowed to stand for five minutes at normal ambient temperature.
Two hundred fifty microliters of the above solution of the radiopharmaceutical ^99m Tc-DHPE were injected i.v. (intravenously) in the tail vein of each of six Hooded strain, closed colony, random breeding rats. The rats were sacrificed at the following time periods 1 hr, 2 hr, 4 hr, 6 hr, 12 hr, and 24 hrs. The organs of each rat were isolated and the distribution of Tc-99m determined by assay with a single channel analyzer equipped with a well type NaI(T1) scintillation detector.
The experimental error in the distribution vs. time data for the ^99m Tc-DHPE complex was minimized by averaging six runs under identical conditions, always with the Hooded strain rats. The effect of organ geometry on radioactivity counting efficiency was taken into account. Corrections were also made so that, upon extrapolation back to time zero, the summation of activity in the organs was equal to the injected activity (i.e. by comparison to standards).

[4] = Acute and chronic toxicity of DHPE in rodents; assay type: in vivo; conditions: injected doses 5 to 250 mg per kg of body weight
Description: The amount of complexing agent required to be injected into a test animal or human patient for a satisfactory skeleton scintigraphy is three orders of magnitude smaller than the highest tested dose.

^99m Tc-1,2-Dihydroxy-1,2-bis(dihydroxyphosphinyl)ethane Complex [^99m Tc-DHPE]
excretion [1]: mainly to the urine
skeleton uptake [1]: rapid skeleton uptake
uptake by other organs ([1]; effect on bone specificity): did not detract significantly from bone specificity
initial radioactivity in the blood detected in the blood ([2]; 30 minutes after injection): Less than 30%
removal of the radiopharmaceutical from the blood ([2]; i.v. ear vein): fast removal
quality of skeleton images ([2]; i.v. ear vein, 1 to 2.5 hrs post injection): Excellent images of the skeleton
skeleton visualization ([2]; i.v. ear vein, thirty minutes post injection): clearly visualized
Dose per Organ ([3]; ADRENALS, 1 hr): 0.006 ± 0.006
Dose per Organ ([3]; ADRENALS, 2 hr): 0.007 ± 0.005
Dose per Organ ([3]; ADRENALS, 4 hr): 0.003 ± 0.001
Dose per Organ ([3]; ADRENALS, 6 hr): 0.003 ± 0.001
Dose per Organ ([3]; ADRENALS, 12 hr): 0.001 ± 0.000
Dose per Organ ([3]; ADRENALS, 24 hr): 0.001 ± 0.000
Dose per Organ ([3]; BLOOD, 1 hr): 0.742 ± 0.384
Dose per Organ ([3]; BLOOD, 2 hr): 0.895 ± 0.515
Dose per Organ ([3]; BLOOD, 4 hr): 0.643 ± 0.414
Dose per Organ ([3]; BLOOD, 6 hr): 0.322 ± 0.067
Dose per Organ ([3]; BLOOD, 12 hr): 0.312 ± 0.209
Dose per Organ ([3]; BLOOD, 24 hr): 0.104 ± 0.015
Dose per Organ ([3]; BONE, 1 hr): 44.426 ± 2.556
Dose per Organ ([3]; BONE, 2 hr): 45.722 ± 3.411
Dose per Organ ([3]; BONE, 4 hr): 53.447 ± 2.828
Dose per Organ ([3]; BONE, 6 hr): 47.673 ± 6.612
Dose per Organ ([3]; BONE, 12 hr): 42.362 ± 4.449
Dose per Organ ([3]; BONE, 24 hr): 43.317 ± 2.825
Dose per Organ ([3]; FECES, 1 hr): 0.034 ± 0.054
Dose per Organ ([3]; FECES, 2 hr): 0.053 ± 0.088
Dose per Organ ([3]; FECES, 4 hr): 0.394 ± 0.343
Dose per Organ ([3]; FECES, 6 hr): 0.570 ± 0.205
Dose per Organ ([3]; FECES, 12 hr): 0.848 ± 0.601
Dose per Organ ([3]; FECES, 24 hr): 3.149 ± 1.799
Dose per Organ ([3]; HEART, 1 hr): 0.022 ± 0.008
Dose per Organ ([3]; HEART, 2 hr): 0.026 ± 0.012
Dose per Organ ([3]; HEART, 4 hr): 0.018 ± 0.008
Dose per Organ ([3]; HEART, 6 hr): 0.015 ± 0.004
Dose per Organ ([3]; HEART, 12 hr): 0.011 ± 0.005
Dose per Organ ([3]; HEART, 24 hr): 0.006 ± 0.001
Dose per Organ ([3]; KIDNEYS, 1 hr): 1.523 ± 0.371
Dose per Organ ([3]; KIDNEYS, 2 hr): 1.782 ± 0.365
Dose per Organ ([3]; KIDNEYS, 4 hr): 1.441 ± 0.277
Dose per Organ ([3]; KIDNEYS, 6 hr): 2.716 ± 0.365
Dose per Organ ([3]; KIDNEYS, 12 hr): 3.018 ± 0.825
Dose per Organ ([3]; KIDNEYS, 24 hr): 1.187 ± 0.119
Dose per Organ ([3]; LARGE INTESTINE, 1 hr): 1.548 ± 1.380
Dose per Organ ([3]; LARGE INTESTINE, 2 hr): 2.210 ± 1.789
Dose per Organ ([3]; LARGE INTESTINE, 4 hr): 2.906 ± 3.009
Dose per Organ ([3]; LARGE INTESTINE, 6 hr): 3.209 ± 0.684
Dose per Organ ([3]; LARGE INTESTINE, 12 hr): 0.648 ± 0.615
Dose per Organ ([3]; LARGE INTESTINE, 24 hr): 0.415 ± 0.448
Dose per Organ ([3]; LIVER, 1 hr): 0.095 ± 0.018
Dose per Organ ([3]; LIVER, 2 hr): 0.184 ± 0.049
Dose per Organ ([3]; LIVER, 4 hr): 0.187 ± 0.032
Dose per Organ ([3]; LIVER, 6 hr): 0.168 ± 0.044
Dose per Organ ([3]; LIVER, 12 hr): 0.131 ± 0.022
Dose per Organ ([3]; LIVER, 24 hr): 0.134 ± 0.030
Dose per Organ ([3]; LUNGS, 1 hr): 0.104 ± 0.033
Dose per Organ ([3]; LUNGS, 2 hr): 0.149 ± 0.105
Dose per Organ ([3]; LUNGS, 4 hr): 0.121 ± 0.029
Dose per Organ ([3]; LUNGS, 6 hr): 0.032 ± 0.007
Dose per Organ ([3]; LUNGS, 12 hr): 0.022 ± 0.015
Dose per Organ ([3]; LUNGS, 24 hr): 0.044 ± 0.024
Dose per Organ ([3]; MUSCLE, 1 hr): 1.138 ± 0.511
Dose per Organ ([3]; MUSCLE, 2 hr): 2.371 ± 1.206
Dose per Organ ([3]; MUSCLE, 4 hr): 2.193 ± 0.974
Dose per Organ ([3]; MUSCLE, 6 hr): 4.216 ± 2.815
Dose per Organ ([3]; MUSCLE, 12 hr): 2.139 ± 0.389
Dose per Organ ([3]; MUSCLE, 24 hr): 2.699 ± 1.989
Dose per Organ ([3]; SMALL INTESTINE, 1 hr): 0.963 ± 0.868
Dose per Organ ([3]; SMALL INTESTINE, 2 hr): 1.963 ± 2.085
Dose per Organ ([3]; SMALL INTESTINE, 4 hr): 1.009 ± 1.243
Dose per Organ ([3]; SMALL INTESTINE, 6 hr): 0.495 ± 0.205
Dose per Organ ([3]; SMALL INTESTINE, 12 hr): 0.318 ± 0.113
Dose per Organ ([3]; SMALL INTESTINE, 24 hr): 0.091 ± 0.033
Dose per Organ ([3]; SPLEEN, 1 hr): 0.020 ± 0.007
Dose per Organ ([3]; SPLEEN, 2 hr): 0.026 ± 0.007
Dose per Organ ([3]; SPLEEN, 4 hr): 0.020 ± 0.003
Dose per Organ ([3]; SPLEEN, 6 hr): 0.022 ± 0.007
Dose per Organ ([3]; SPLEEN, 12 hr): 0.008 ± 0.002
Dose per Organ ([3]; SPLEEN, 24 hr): 0.010 ± 0.004
Dose per Organ ([3]; STOMACH, 1 hr): 0.288 ± 0.137
Dose per Organ ([3]; STOMACH, 2 hr): 0.388 ± 0.176
Dose per Organ ([3]; STOMACH, 4 hr): 0.226 ± 0.243
Dose per Organ ([3]; STOMACH, 6 hr): 0.152 ± 0.148
Dose per Organ ([3]; STOMACH, 12 hr): 0.082 ± 0.023
Dose per Organ ([3]; STOMACH, 24 hr): 0.040 ± 0.029
Dose per Organ ([3]; URINE, 1 hr): 28.584 ± 5.562
Dose per Organ ([3]; URINE, 2 hr): 28.295 ± 1.829
Dose per Organ ([3]; URINE, 4 hr): 31.469 ± 4.991
Dose per Organ ([3]; URINE, 6 hr): 24.033 ± 5.995
Dose per Organ ([3]; URINE, 12 hr): 6.519
Dose per Organ ([3]; URINE, 24 hr): 8.600
excretion ([3]; rats, i.v.): mainly via the kidneys to urine
removal from the blood ([3]; rats, i.v.): fast removal
concentration to the skeleton ([3]; rats, i.v., in comparison to other organs or tissues): fast and high concentration to the skeleton

O=P(O)(O)C(O)C(O)P(=O)(O)O (centres unmarked) [DHPE, 1,2-dihydroxy-1,2-bis(dihydroxyphosphinyl)ethane]
deaths or adverse effects (acute and chronic toxicity) [4]: no deaths or adverse effects
